In publication PMC10984466, “Structure-based identification of salicylic acid derivatives as malarial threonyl tRNA-synthetase inhibitors” (PLOS ONE, 2024):
Read-outs that look alike come from different tables or passages of the source.

Biological target: T1, PfThrRS (Plasmodium falciparum, UniProt Q8IIA4)
T1 construct: made in house; host or cells: E. coli BL21(DE3)
T1 sequence (Q8IIA4 21-1013): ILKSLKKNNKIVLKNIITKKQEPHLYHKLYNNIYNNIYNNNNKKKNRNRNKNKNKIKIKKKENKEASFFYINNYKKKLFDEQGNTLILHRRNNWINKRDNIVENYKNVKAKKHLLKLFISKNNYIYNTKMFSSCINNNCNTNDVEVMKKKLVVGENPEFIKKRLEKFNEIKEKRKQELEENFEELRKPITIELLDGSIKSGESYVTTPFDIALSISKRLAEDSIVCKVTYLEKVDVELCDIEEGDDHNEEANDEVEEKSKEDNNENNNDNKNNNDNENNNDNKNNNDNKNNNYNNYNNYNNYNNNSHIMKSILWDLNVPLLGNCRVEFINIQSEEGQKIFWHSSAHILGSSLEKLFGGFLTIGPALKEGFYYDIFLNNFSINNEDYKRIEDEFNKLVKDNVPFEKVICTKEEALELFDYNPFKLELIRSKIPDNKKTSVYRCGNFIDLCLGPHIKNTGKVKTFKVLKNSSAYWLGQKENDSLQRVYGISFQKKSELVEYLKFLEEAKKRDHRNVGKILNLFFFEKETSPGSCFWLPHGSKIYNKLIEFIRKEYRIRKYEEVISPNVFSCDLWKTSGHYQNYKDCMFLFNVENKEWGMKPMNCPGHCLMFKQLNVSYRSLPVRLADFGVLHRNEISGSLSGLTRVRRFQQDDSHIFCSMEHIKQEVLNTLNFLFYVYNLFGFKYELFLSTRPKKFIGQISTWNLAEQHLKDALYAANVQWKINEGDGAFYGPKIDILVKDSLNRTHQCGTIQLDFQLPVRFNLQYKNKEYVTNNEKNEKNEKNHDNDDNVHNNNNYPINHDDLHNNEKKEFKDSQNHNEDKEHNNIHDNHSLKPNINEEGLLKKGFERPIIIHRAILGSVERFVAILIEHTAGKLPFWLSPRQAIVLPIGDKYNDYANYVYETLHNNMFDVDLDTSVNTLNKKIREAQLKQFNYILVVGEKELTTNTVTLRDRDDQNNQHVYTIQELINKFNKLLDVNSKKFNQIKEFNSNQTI
Test: In vitro PfThrRS inhibition assay (aminoacylation activity, ATP consumption by Kinase-Glo luminescence)
Format: biochemical
Settings: for LE (ligand efficiency): PfThrRS inhibitors, Fig 4 and text
Description: The bioassay protocol was adapted from the literature. The aminoacylation activity of PfThrRS in the presence of compounds was determined by measuring ATP consumption in the enzymatic reaction by using recombinant PfThrRS and P. falciparum cell extract as a source of t-RNA. ATP consumption was determined by Kinase-Glo® Reagent (Promega Inc.). The luminescence was read on a Tecan Infinite M1000 microplate reader. The inhibitory rate was measured in three independent assays. Borrelidin was obtained from commercial sources and used as a reference compound.

[1] = Table SI1, adenosine binding subsite substituent
[2] = Table SI1, adenosine binding subsite substituent, fraction of PfThrRS inhibited at 100 µM, read-out: ThrRS inhibition @100 µM, %
[3] = Table SI2, arginine binding group, fraction of PfThrRS inhibited at 100 µM, read-out: ThrRS inhibition @100 µM, %
[4] = Table SI3, zinc ion binding group, fraction of PfThrRS inhibited at 100 µM, read-out: ThrRS inhibition @100 µM, %

Cc1ccc(NS(=O)(=O)c2ccc(O)c(C(=O)O)c2)cc1 [7s]
IC50 [1]: 67 ± 3 µM | inhibition at 100 µM [2]: 63%

O=C(O)c1cc(S(=O)(=O)Nc2cccc(Cl)c2)ccc1O [7r]
IC50 [1]: 76 ± 4 µM | inhibition at 100 µM [2]: 64%

O=C(O)c1cc(C(Nc2ccccc2)C(=O)O)ccc1O (stereo not drawn) [7i, 5-(Carboxy(phenylamino)methyl)-2-hydroxybenzoic acid]
inhibition at 100 µM [3]: 0%

O=C(O)c1cc(S(=O)(=O)Nc2ccc(Br)cc2)ccc1O [7o]
IC50 [1]: 32 ± 2 µM | inhibition at 100 µM [2]: 84%

COc1cccc(-c2cccc(NS(=O)(=O)c3ccc(O)c(C(=O)O)c3)c2)c1 [7p, 2-Hydroxy-5-(N-(3’-methoxy-[1,1’-biphenyl]-3-yl)sulfamoyl)benzoic acid]
IC50 [1]: 46 ± 3 µM | inhibition at 100 µM [2]: 80 ± 9%

CCCCc1ccc(NS(=O)(=O)c2ccc(O)c(C(=O)O)c2)cc1 [7m]
IC50 [1]: 31 ± 2 µM | inhibition at 100 µM [2]: 93%

O=C(O)c1cc(S(=O)(=O)Nc2ccc(Oc3ccccc3)cc2)ccc1O [7t, 2-Hydroxy-5-(N-(4-phenoxyphenyl)sulfamoyl)benzoic acid]
inhibition at 100 µM (100 μM compound, Figs 6, 8, 12, read-out: PfThrRS inhibition @100 μM, %): 58 ± 9%

O=C(O)c1cc(S(=O)(=O)Nc2ccccc2)ccc1F [7g]
inhibition at 100 µM [4]: 0%

CCCCC[C@H](O)CC[C@@H]1[C@H]2Cc3cccc(OCC(=O)O)c3C[C@H]2C[C@H]1O [compound 15, Remodulin, reference compound]
LE (ligand efficiency): 0.25 | IC50 (verified HTVS hits, Fig 4): 12.5 ± 1.5 µM

Cc1nc2cc(NC(=O)C3C4C=CC(C4)C3C(=O)O)ccc2o1 (stereo not drawn) [compound 11]
LE (ligand efficiency): 0.27 | IC50 (verified HTVS hits, Fig 4): 39 ± 4 µM

O=C(O)c1cc(S(=O)(=O)Nc2cc(Cl)ccc2Oc2ccccc2)ccc1O [7l]
IC50 [1]: 32 ± 2 µM | inhibition at 100 µM [2]: 100%

O=C(O)c1cc(S(=O)(=O)Nc2ccc(Cl)cc2)ccc1O [7w]
inhibition at 100 µM [2]: 31 ± 10%

O=C(Nc1cccc(C(F)(F)F)c1)c1cccc(NS(=O)(=O)c2ccc(O)c(C(=O)O)c2)c1 [7k]
IC50 [1]: 31 ± 2 µM | inhibition at 100 µM [2]: 100%

O=C(c1ccn(-c2ccc(F)cc2)n1)N1CCC(O)(C(=O)O)C1 (stereo not drawn) [compound 10]
LE (ligand efficiency): 0.29 | IC50 (verified HTVS hits, Fig 4): 19 ± 2 µM

O=C(O)c1cc(S(=O)(=O)Nc2cccc3ccccc23)ccc1O [7v]
IC50 [1]: 84 ± 4 µM | inhibition at 100 µM [2]: 57%

Cc1c(C(=O)O)nnn1-c1sc2c(c1C(=O)O)CCCC2 [compound 8]
LE (ligand efficiency): 0.33 | IC50 (verified HTVS hits, Fig 4): 10.3 ± 1.2 µM

O=C(O)c1cc(S(=O)(=O)Nc2ccccc2)ccc1S [7d, 2-Mercapto-5-(N-phenylsulfamoyl)benzoic acid]
inhibition at 100 µM [4]: 16 ± 11%

COC(=O)c1cc(S(=O)(=O)Nc2ccccc2)ccc1O [7b, Methyl 2-hydroxy-5-(N-phenylsulfamoyl)benzoate]
inhibition at 100 µM [4]: 19 ± 8%

O=C(O)c1cccc(S(=O)(=O)Nc2ccccc2)c1 [7f]
inhibition at 100 µM [4]: 2 ± 4%

O=C(O)c1cc(S(=O)(=O)c2ccccc2)ccc1O [7j, 2-Hydroxy-5-(phenylsulfonyl)benzoic acid]
inhibition at 100 µM [3]: 11 ± 10%

O=C(O)CCc1nc2c(O)nc(SCc3ccccc3F)[nH]c-2nc1=O [compound 12]
LE (ligand efficiency): 0.27 | IC50 (verified HTVS hits, Fig 4): 12.1 ± 1.6 µM

Cc1csc2ncc(C(=O)N[C@H]3Cc4ccc(C(=O)O)cc4C3)n12 [compound 14]
LE (ligand efficiency): 0.25 | IC50 (verified HTVS hits, Fig 4): 49 ± 5 µM

O=C(O)c1cc(S(=O)(=O)Nc2ccc(I)cc2)ccc1O [7n]
IC50 [1]: 46 ± 2 µM | inhibition at 100 µM [2]: 88%

O=C(O)CC(O)(Cc1ccccc1)c1ccc(O)c(C(=O)O)c1 (stereo not drawn) [7h, 5-(1-Carboxy-2-hydroxy-3-phenylpropan-2-yl)-2-hydroxybenzoic acid]
inhibition at 100 µM [3]: 10 ± 8%

O=C(O)c1cc(S(=O)(=O)Nc2ccccc2)ccc1O [7a, 2-Hydroxy-5-(N-phenylsulfamoyl)benzoic acid]
LE (ligand efficiency) (listed as 7): 0.34 | IC50 [1]: 13.1 ± 1.4 µM | inhibition at 100 µM [2]: 100%

COc1ccc(S(=O)(=O)Nc2ccccc2)cc1C(=O)O [7e]
inhibition at 100 µM [4]: 11 ± 7%

O=C(O)c1cc(S(=O)(=O)Nc2ccc(Cc3ccccc3)cc2)ccc1O [7q, 5-(N-(4-benzylphenyl)sulfamoyl)-2-hydroxybenzoic acid]
IC50 [1]: 55 ± 3 µM | inhibition at 100 µM [2]: 67 ± 11%

O=C(NO)c1cc(S(=O)(=O)Nc2ccccc2)ccc1O [7c, N,2-dihydroxy-5-(N-phenylsulfamoyl)benzamide]
inhibition at 100 µM [4]: 16 ± 7%

O=C(O)CCS(=O)(=O)c1ccc2c(c1)OCCCO2 [compound 9]
LE (ligand efficiency): 0.30 | IC50 (verified HTVS hits, Fig 4): 75 ± 5 µM

O=C(O)c1cc(C2CCN(C(=O)C[C@H]3CCCCO3)CC2)no1 [compound 13]
LE (ligand efficiency): 0.26 | IC50 (verified HTVS hits, Fig 4): 65 ± 5 µM

O=C(O)c1cc(S(=O)(=O)Nc2cccc(-c3ccccc3)c2)ccc1O [7x, 5-(N-([1,1’-biphenyl]-3-yl)sulfamoyl)-2-hydroxybenzoic acid]
inhibition at 100 µM [2]: 7 ± 1%

O=C(O)c1cc(S(=O)(=O)Nc2ccc3oc(=O)sc3c2)ccc1O [7u]
IC50 [1]: 89 ± 4 µM | inhibition at 100 µM [2]: 58%

O=C(O)c1cc(S(=O)(=O)Nc2ccc(Oc3ccccc3)cc2)ccc1O [LVV-455]
inhibition at 100 µM [2]: 35 ± 11%
